Laboratory results from patent US20230002344A1, “NOVEL BENZOTHIOPHENE DERIVATIVES AND USE THEREOF FOR STIMULATING MITOCHONDRIAL TURNOVER” (NIBN, The National Institute For Biotechnology In The Negev …, priority 2019, published 2023).
“Also recorded” adds a separate entry of the source.

Tests used:
INS1 cells [1] = test: Western blot against LC3 (autophagic flux); format: cell-based
Method: The Z-score depicts the standard deviation from the neutral control (DMSO). In FIG. 3C: Mitochondrial mass in INS1 cells treated for 18 hours with either DMSO (control), Urolithin A (25 μM), SPB08007 (“SBP”) (25 μM) or MWP00839 (“MWP”) (11.5 μM) and then stained with Mitotracker green (200 nM). In FIG. 3D: SPB08007 and MWP00839 increase the number of mitochondria inside autolysosomes. INS1 cells expressing mCherry-GFP were exposed to SPB08007, MWP00839, and DMSO for 8 hours and then subjected to confocal microscopy. The area of red fluorescence in the taken images was determined. N=3+/−SEM pANOVA<0.05. FIG. 3E provides representative images. […] FIG. 3F provides the Western blot against LC3 in INS1 cells treated with the compounds in presence or absence of bafilomycin (+b) for the last 2 hours.

INS1 cells [2] = system: INS1 cells
Method: Cellular oxygen consumption. An hour before oxygen consumption measurements, cell media was replaced by assay media (2 mM glucose, 0.8 mM Mg 2+, 1.8 mM Ca 2+, 143 mM NaCl, 5.4 mM KCl, 0.91 mM, NaH 2 PO 4 , and 15 mg/mL Phenol red) for 120 min at 37° C. (no CO2) before loading into the Seahorse Bioscience XF24 extracellular analyzer. The ports of the cartridge containing the oxygen probes were loaded with the compounds to be injected during the assay (50 μL/port) and the cartridge was calibrated.
Basal respiration was recorded for 30 min, at approximately 5 min intervals until system stabilization. Glucose was injected at a final concentration of 12 mM and glucose stimulated respiration was recorded for approximately 15 min. FCCP (Carbonyl cyanide-4-phenylhydrazone) was used at final concentration of 4 μM and injected with sodium pyruvate (Sigma) at a final concentration of 5 mM. Oligomycin and antimycin were used at final concentrations of 2 and 4 μM, respectively. All respiratory modulators were used at ideal concentrations titrated during preliminary experiments (not shown) and oxygen consumption rates were recorded for up to 15 min due the toxicity of these compounds. […] All the OCR values were subtracted from the lowest antimycin OCR.

[3] = system: INS1 cells expressing MitoTimer; test: MitoTimer red/green ratio high-content screen and dose-response; format: cell-based
Method: INS1 cells were stably transduced with MitoTimer by lentiviral infection and were tested using known modulators of autophagy. The paradigm used was based on previous reports showing that the shift in emission from green to red occurs within 18 hours. Assuming that this shift is constant, changes in red FI occurring during this frame of time can result from an effect on MitoTimer clearance and not from an effect on synthesis. The paradigm employed consisted therefore of a treatment lasting 18 hours followed by imaging.
Stimulators of mitochondrial clearance were defined as those inducing a red-to-green FI below −3 and a red intensity below −5.1. Suppressors of mitochondrial clearance were defined as those inducing a red-to-green FI above 10.34 and a red intensity above 4.5. […] Compounds displaying high green FI (above 15) were also discarded to prevent the inclusion of autofluorescent molecules. Only molecules that filled the above criteria in both duplicates were further tested.
The screen was performed during 8 sessions in Weizmann institute. All compounds were tested at a concentration of 10 μM, in duplicates. The images were processed to reduce background (using Metamorph software) and then analyzed in GeneData software.
We subjected those compounds to a dose-response assay (concentrations: 10, 3.33, 1.11, 0.37 and 0.12 μM).
MitoTimer expressing INS1 cells generation, Cell Culture and treatments. MitoTimer-reporter was cloned into the pHAGE2 lenti-vector under the full-length EF1-alpha promoter to obtain constitutive expression. For the HCS, INS1 cells were infected with lentivirus carrying mitochondrial complex-I-targeted-MitoTimer plasmid. Highly expressing cells were selected by high speed fluorescence activated cell sorter (SY3200 cell sorter, Synergy, iCyt) and kept by the addition of puromycin (1 mg . L-1) in the cell media. Cells were thawed before each experiment, and MitoTimer expression checked through fluorescence.
High-Content Screening. […] HCS assay was developed at the Drug Discovery Unit, INCPM, Weizmann Institute of Science. […] Briefly, cells were treated with 10 uM of each compounds for 18 h and imaged in two wavelengths (FITC—excitation […], emission 520/35 nm and TRITC—excitation 543/22 nm, emission 593/40 nm) at ImageXpress Micro High-Content Imaging System/Molecular Devices. Rapamycin 100 nM was used as a control. In each cell plate, the neutral (DMSO) and positive control (Rapamycin) were repeated in 16 replicates while the treatments were performed in duplicates. Each plate was replicated and only hits found in the 2 independent plates were considered. Two fields of each well were analyzed, what normally allowed the analysis of 20-40 cells per condition. MitoTimer red/green ratio for every cell was done in MetaXpress. […] The compounds which affected MitoTimer red/green ratio in a dose response, ranging from […], were classified as a hit.
Individual cells were identified using the red channel, and red and green MitoTimer fluorescence were analyzed and ratio determined per cell.

INS1 cells [4] = test: Mitochondrial membrane potential (TMRE/MTG); format: cell-based; conditions: 25 uM, 24 h
Method: INS1 cells were treated for 24 h with SPB08007 (25 uM) or DMSO (0.1%). Mitochondrial membrane potential was analyzed cell by cell through TMRE staining corrected by Mitotracker Green (MTG). Cells were imaged using a 100× Plan Neofluar objective and the Airyscan module of a Zeiss LSM880 confocal microscope. […] Each experiment was repeated 2 times, 59-85 cells of each group were analyzed in each experiment for TMRE/MTG, and 48 fields were analyzed in each experiment for Mitosox analysis. *p<0.05 vs. DMSO; ***p<0.05 vs. DMSO and SPB08007.
To assess mitochondrial membrane potential, INS1 cells were plated in each compartment of a quadrant imaging dish (Greiner Bio-One International) at a density of 1.2*10^5 cells/well. After 48 h, cells were incubated RPMI-1640 containing 25 μM of compound A or vehicle (0.1% DMSO). After 18h, the cells were stained in RPMI-1640 media containing 200 nM MitoTracker Green (MTG) and 15 nM of Tetramethylrhodamine, ethyl ester (TMRE); cells were then washed three times and finally kept in RPMI-1640 containing TMRE but lacking MTG. Live-Imaging was performed using a 63× Plan Neofluar objective and the Airyscan module of a Zeiss LSM880 confocal microscope. The mitochondrial membrane potential was analyzed by TMRE fluorescence corrected by MTG, using the Fiji/ImageJ software.

CC(=O)N/C(=C\c1sc2ccccc2c1C)C(=O)O [SPB08007]
autophagy (LC3II, with or without bafilomycin) (INS1 cells [1]): increase in autophagy | OCR under oligomycin (INS1 cells [2]; 25 μM, 18 hours exposure): decreased as well | basal oxygen consumption rate (OCR) (INS1 cells [2]; 25 μM, 18 hours exposure): decreased | maximal OCR (under FCCP induction) (INS1 cells [2]; 25 μM, 18 hours exposure): decreased | ATP-linked oxygen consumption (INS1 cells [2]; 25 uM, 48 h): higher | glucose-stimulated mtOCR (INS1 cells [2]; 25 uM, 48 h): increased | mitochondrial coupling (oligomycin-sensitive respiration) (INS1 cells [2]; 25 uM, 48 h): conserving | spare respiratory capacity relative to basal respiration (INS1 cells [2]; 25 uM, 48 h): unchanged | basal mitochondrial oxygen consumption rate (mtOCR) (INS1 cells [2]; 25 uM, 48 h, 2 mM glucose): increased | maximum mtOCR (INS1 cells [2]; 25 uM, 48 h, after FCCP): increased | red/green MitoTimer ratio ([3]; 10 uM, INS1 cells): reduced | MitoTimer green readout ([3]; 50 uM dose): increase | maximum reduction on the ratio index (MitoTimer red/green) ([3]; 50 uM dose, 18 h, vs DMSO): 40% | optimal dose for stimulating a reduction in red-to-green FI ([3]; INS1 cells, 18 h): 25 µM | activity (MitoTimer red-to-green FI, Z-score vs DMSO) ([3]; INS1 cells, 18 h, dose-response): −3.018 | EC50 ([3]; Rattus norvegicus, INS1 cells, 18 h, dose-response, read-out: qEC50): 49 µM | mitochondrial membrane potential ψm (TMRE/MTG) (INS1 cells [4]): not reduced; also recorded: slightly, but significantly, raised
